Assay results taken from patent US20200276100A1, “PHOTOPROTECTIVE COMPOSITIONS CONTAINING MALASSEZIA-DERIVED COMPOUNDS AND/OR CHEMICAL ANALOGS THEREOF” (priority 2018, published 2020).
Read-outs that look alike come from different tables or passages of the source.

Legend:
Adverse events recording = type: in vivo, human; conditions: all visits; Malassezin 0.1%, 0.5%, 1.0% formulations twice daily to the face
Experimental: Evaluation: Colorimetry measurements using the Mexameter MX 18 were used at Baseline, and Weeks 2, 4, 8, 14, 18, and 22. Clinical assessments of depigmentation was performed in the treated area. Assessments were performed at Baseline, and Weeks 2, 4, 8, 14, 18, and 22. Brightening assessments included brightening of normal skin and/or severity of dyschromia, if present (see scale). Global improvement was measured at the same time intervals. At all visits any adverse events (AE) was to be recorded including itching, burning, erythema, edema, dryness, scaling or skin peeling (see rating scales). […] Positive percentages indicate increased pigmentation, which indicates darkening. “Conc.” indicates the concentration of Malassezin in the formulation administered to the subject.

fine lines and wrinkles = assay: Fine lines and wrinkles, dermatologist evaluation (Lemperle classification); type: in vivo, human; conditions: 11 subjects, 0.1%, 0.5% and 1.0% formulations pooled
Experimental: Malassezin formulations were evaluated for their effect on fine lines and wrinkles. In this study, human subjects with skin containing areas of hyperpigmentation were randomized to one of 3 groups. […] One mL of product (formulations detailed below) was applied to the face of subjects twice daily. Five minutes after the morning application, an SPF 50 sunscreen was applied to protect the treated areas from sun. Each subject had assessments at Baseline, 2, 4, 8, 14, 18 and 22 weeks. Treatment was ceased at 14 weeks. Week 18 and week 22 observations were to determine any return towards baseline.
Eleven subjects using the test ingredient completed week 14. […] An M.D. dermatologist with experience in evaluating fine lines and wrinkles performed evaluations on the subjects in this study and obtained the measurements tabulated below. Wrinkle assessment, classification, and evaluation were performed as described in G. Lemperle et al., A classification of facial wrinkles, Plast. Reconstr. Surg. 108: 1735 (2001), incorporated by reference herein in its entirety. For each subject, the percentage Malassezin formulation is indicated.

[1] = test system: lines and wrinkles, skin texture, tone and firmness; assay: Subject self-assessment questionnaire; type: in vivo, human; conditions: percentage of 11 subjects with a score of 6 or 5, formulations pooled
Experimental: Malassezin formulations were evaluated for their effect on fine lines and wrinkles. In this study, human subjects with skin containing areas of hyperpigmentation were randomized to one of 3 groups. Product use groups included Malassezin 0.05%, 0.1%, and 1.0%. One mL of product (formulations detailed below) was applied to the face of subjects twice daily. Five minutes after the morning application, an SPF 50 sunscreen was applied to protect the treated areas from sun. Each subject had assessments at Baseline, 2, 4, 8, 14, 18 and 22 weeks. Treatment was ceased at 14 weeks. Week 18 and week 22 observations were to determine any return towards baseline.
A subject self-assessment was completed at every visit. A total number of eleven (11) subjects were asked to respond to the questions regarding the improvement (if any) in their lines and wrinkles and related skin texture, tone, and firmness. Each answer was ranked from 6 to 1, with each having the meaning: 6—Strongly agree, 5—Agree, 4—Agree somewhat, 3—Disagree somewhat, 2—Disagree, and 1—Strongly disagree. The percentage of subjects answering with a score of 6 or 5 was calculated and is presented in the data below.

[2] = test system: COL3A1 (Collagen, type III, alpha 1); assay: Differential gene fold expression analysis of skin biopsies; type: in vivo, human; conditions: RNA, biopsy of treated vs untreated skin after 6 weeks of application, parentheses = not statistically significant, negative = decrease
Description: (§1) Differential gene fold expression analysis was used to analyze Malassezin and compound AB17151. Biopsies from human subjects were taken after 6 weeks of application of compounds. Two participants applied AB17151 and one participant applied Malassezin. Biopsies were taken of treated skin and, as a control and for comparison, from untreated skin.
(§2) In the Table, numbers in parentheses indicate changes that are not statistically significant. All numbers indicate fold change in expression. Negative values indicate decreases in activity. A minus-3-fold change in activity, for example, means that the value changed by minus-3-fold, meaning it changed to ⅓ of its original value.

subject's skin = assay: In vivo photoprotection, clinical erythema evaluation after UVB irradiation; set-up: species or system human; conditions: Malassezin 1% formulation, one Skin Type IV subject
Description: The Malassezin 1% formulation used in this study contained the following ingredients: Water (aqua)—65.939%; Dimethyl isosorbide—20.000%; Olive Oil Glycereth-8 Esters—3.000%; Glycerin—2.991%; Coconut Alkanes—2.700%; Hydroxyethyl Acrylate/Sodium Acryloyldimethyl Taurate Copolymer—1.700%; Malassezin—1.000%; Pentylene Glycol—1.000%; Phenoxyethanol—0.640%; Coco-Caprylate/Caprate—0.300%; Caprylyl Glycol—0.200%; Chlorphenesin—0.160%; Sorbitan Isostearate—0.140%; Tocopherol—0.100%; Polysorbate 60-0.080%; and Disodium EDTA—0.050%.
A Skin Type IV […] was included in this Proof of Concept study.
A template of 6 squares was placed on the lower left back (1.5 cm×1.5 cm) of the test subject.
Twenty-four hours after irradiation, the subject returned for MED assessment.
A second right lower square was treated twice daily from day 4 to day 7, and a third medial square for one application on day 7. The product vehicle was applied for 7 days twice daily on the left back. The subject returned to the research center for irradiation on day 7. Each test site was irradiated with 120 mJ of UVB exposure. The subject returned in 24 hours for assessment of phototoxicity/photoprotection.
The subject continued the experiment, receiving Malassezin 1% for a total of 14 days. […]

[3] = test system: PCOLCE2 (Pro-Collagen C endopeptidase enhancer 2); assay: Differential gene fold expression analysis of skin biopsies; type: in vivo, human; conditions: RNA, biopsy of treated vs untreated skin after 6 weeks of application, parentheses = not statistically significant, negative = decrease
Description: as §1, §2

[4] = test system: MMP7 (Matrix Metalloproteinase 7); assay: as above; type: in vivo, human; conditions: RNA, biopsy of treated vs untreated skin after 6 weeks of application; participant one; parentheses = not statistically significant; negative = decrease
Description: as §1, §2

[5] = test system: COL5A2 (Collagen, type V, alpha 2); assay: as above; type: in vivo, human; conditions: RNA, biopsy of treated vs untreated skin after 6 weeks of application; participant; parentheses = not statistically significant; negative = decrease
Description: as §1, §2

[6] = test system: COL1A1 (Collagen, type 1, alpha 1); assay: as above; type: in vivo, human; conditions: RNA, biopsy of treated vs untreated skin after 6 weeks of application; participant; parentheses = not statistically significant; negative = decrease
Description: as §1, §2

[7] = test system: COL5A1 (Collagen, type V, alpha 1); assay: as above; type: in vivo, human; conditions: RNA, biopsy of treated vs untreated skin after 6 weeks of application; participant; parentheses = not statistically significant; negative = decrease
Description: as §1, §2

[8] = test system: COL1A2 (Collagen, type 1, alpha 2); assay: as above; type: in vivo, human; conditions: RNA, biopsy of treated vs untreated skin after 6 weeks of application, parentheses = not statistically significant, negative = decrease
Description: as §1, §2

skin of healthy subjects = conditions: cited from earlier work
[9] = cited from earlier work; for sun protection factor (SPF): 290-400 nm

## O=Cc1c(Cc2c[nH]c3ccccc23)[nH]c2ccccc12 [Malassezin]
Adverse events recording
  adverse events (itching, burning, erythema, edema, dryness, scaling or skin peeling): No AEs were recorded
Fine lines and wrinkles; Week 0 (baseline)
  Fine lines/wrinkles score, Average: 2.55
Fine lines and wrinkles; Week 2, P-value 0.024 (Student's T test)
  Fine lines/wrinkles score, Average: 1.82
Fine lines and wrinkles; Week 4, P-value 0.011 (Student's T test)
  Fine lines/wrinkles score, Average: 1.73
Fine lines and wrinkles; Week 8, P-value 0.011 (Student's T test)
  Fine lines/wrinkles score, Average: 1.73
Fine lines and wrinkles; Week 14, P-value 0.011 (Student's T test)
  Fine lines/wrinkles score, Average: 1.73
[1]; Week 2
  Self-assessment: I have smoother skin texture: 45.45%
  Self-assessment: My Lines and wrinkles are less visible: 36.36%
  Self-assessment: My skin firmness has improved: 36.36%
  Self-assessment: My skin has a brighter tone: 45.45%
  Self-assessment: My skin looks more youthful and healthy: 45.45%
  Self-assessment: My skin texture is less coarse: 54.55%
  Self-assessment: Overall skin texture is improved: 54.55%
  Self-assessment: Overall skin tone is improved: 54.55%
[1]; Week 4
  Self-assessment: I have smoother skin texture: 63.64%
  Self-assessment: My Lines and wrinkles are less visible: 54.55%
  Self-assessment: My skin firmness has improved: 63.64%
  Self-assessment: My skin has a brighter tone: 63.64%
  Self-assessment: My skin looks more youthful and healthy: 63.64%
  Self-assessment: My skin texture is less coarse: 63.64%
  Self-assessment: Overall skin texture is improved: 63.64%
  Self-assessment: Overall skin tone is improved: 63.64%
[1]; Week 8
  Self-assessment: I have smoother skin texture: 81.82%
  Self-assessment: My Lines and wrinkles are less visible: 63.64%
  Self-assessment: My skin firmness has improved: 63.64%
  Self-assessment: My skin has a brighter tone: 72.73%
  Self-assessment: My skin looks more youthful and healthy: 81.82%
  Self-assessment: My skin texture is less coarse: 72.73%
  Self-assessment: Overall skin texture is improved: 81.82%
  Self-assessment: Overall skin tone is improved: 72.73%
[1]; Week 14
  Self-assessment: I have smoother skin texture: 90.91%
  Self-assessment: My Lines and wrinkles are less visible: 90.91%
  Self-assessment: My skin firmness has improved: 72.73%
  Self-assessment: My skin has a brighter tone: 81.82%
  Self-assessment: My skin looks more youthful and healthy: 72.73%
  Self-assessment: My skin texture is less coarse: 100.00%
  Self-assessment: Overall skin texture is improved: 90.91%
  Self-assessment: Overall skin tone is improved: 81.82%
[2]; participant two
  COL3A1 fold change in expression: 1.7 fold change
subject's skin
  UV-protective properties, conclusion of the Proof of Concept study: UV-protective properties

## COC(=O)c1c(C(c2c[nH]c3ccccc23)C2CC2)[nH]c2ccccc12 (centres unmarked) [AB17151]
[3]; participant one
  PCOLCE2 fold change in expression: 1.57 fold change
[3]; participant
  PCOLCE2 fold change in expression: 1.5 fold change
[4]
  MMP7 fold change in expression: 1.79 fold change
[5]
  COL5A2 fold change in expression: 2.23 fold change
[6]
  COL1A1 fold change in expression: 5.61 fold change
[7]
  COL5A1 fold change in expression: 6.1 fold change
[2]; participant one
  COL3A1 fold change in expression: 2.59 fold change
[2]; participant
  COL3A1 fold change in expression: 6.26 fold change
[8]; participant one
  COL1A2 fold change in expression: 1.99 fold change
[8]; participant
  COL1A2 fold change in expression: 6.97 fold change

## O=C(c1c[nH]c2ccccc12)c1nccc2c1[nH]c1ccccc12 [pityriacitrin, Pityriacitrin]
Skin of healthy subjects; in vitro and in vivo test methods
  UV protective effect, overall: very weak
Skin of healthy subjects; pityriacitrin 5% cream
  in vivo confirmation of the SPF determined in vitro: confirmed the validity of the SPF
[9]; pityriacitrin concentration 1.25% in cream
  sun protection factor (SPF): 1.4
[9]; pityriacitrin concentration 2.5% in cream
  sun protection factor (SPF): 1.5
[9]; pityriacitrin concentration 5% in cream
  sun protection factor (SPF): 1.7
[9]; pityriacitrin cream formulations
  UVB and UVA transmission: decreased with increasing pityriacitrin concentrations
